Reference: patent US20080200531A1, “CDKI pathway inhibitors as inhibitors of tumor cell growth” (priority 2006, published 2008)
Where two headings read alike, the source gives them in different places.

Columns and labels:
[1] = test system: CDKI-responsive endogenous genes induced by p16; assay: Q-PCR of CDKI-responsive endogenous genes, HT1080 cells with IPTG-inducible p16; format: cell-based, human; details: 10 μM SNX9; normalized to β-actin
Method: For this purpose, we developed real-time RT-PCR (Q-PCR) assays for measuring RNA levels of eleven CDKI-responsive genes. This assay uses a 96-well TurboCapture RNA extraction kit (Qiagen), in which oligo(dT) is covalently bound to the surface of the wells to allow mRNA isolation from cell lysate and cDNA synthesis in the same wells. 5 units/μl of SuperScript III reverse transcriptase (Invitrogen) was added to the wells for 1 hr for cDNA synthesis at 50° C., and 2 μl of the resulting cDNA was then used for Q-PCR analysis using SYBR Green PCR Master Mix (ABI) with ABI 7900HT Q-PCR machine.
This effect argues that the molecular target of these compounds is not a specific CDKI but rather a common downstream mediator of the transcription-inducing effects of different CDKI.

[2] = test system: HT1080-derived reporter cell line; assay: Growth inhibition and cell death in HT1080-derived reporter cell line; format: cell-based, human; details: cell death detected microscopically by cell detachment
From the text: The combination of p21 and SNX9-class compounds leads to both G1 and G2/M arrest, at the levels expected for the combined effects of p21 and SNX9 (FIG. 6).

[3] = test system: HMEC primary cultures, MCF-7 and MDA231; assay: 3-day growth inhibition assay (Hoechst 33342), normal mammary epithelial cells vs breast carcinoma lines; details: 3-day assay; HMEC vs MCF-7 and MDA231
Method: The assays were carried out in 96-well plates, in triplicates; the plated cell numbers for each cell line were determined in preliminary experiments to assure exponential growth over the 3-day period of the assay. The cell numbers were measured by staining DNA of attached cells with Hoechst 33342, and the results for each dose were expressed as the decrease in cell number relative to untreated cells. For some of the tumor/normal cell line combinations, the assays were repeated using CellTiter-Glo viability assay (Promega), with the same results.

[4] = test system: isogenic human fibroblast cell lines (untransformed, partially transformed, fully transformed); assay: Dose-dependent growth inhibition of three isogenic human fibroblast cell lines with increasing neoplastic transformation; format: cell-based; details: 3-day assay, Hoechst 33342
From the text: To determine if tumor-specific growth inhibitory activity of SNX9 class compounds could be due to the inhibition of a specific CDK, we took advantage of the availability of selective inhibitors for some of the CDK proteins. Among these enzymes, CDK1, CDK2 and CDK4/CDK6 (the latter two CDKs are closely related to each other and interact with the same class of cyclins), have been used as targets for developing specific inhibitors, with potential anticancer activity. In contrast, CDK3 has not been used as a target for developing selective inhibitors. We have obtained commercially available selective inhibitors of CDK1 (CGP74514A) (Calbiochem Cat. No. 217696), CDK2 (CVT-313) (Calbiochem Cat. No. 238803), and CDK4 (NSC 625987) (Calbiochem Cat. No. 219477), and tested them, along with a broad-specificity CDK inhibitor flavopiridol, and with SNX14, SNX9 and SNX9-1, for growth inhibition of normal and transformed fibroblasts.
This analysis was done using a set of three isogenic human fibroblast cell lines with increasing degrees of neoplastic transformation (immortal but untransformed, partially transformed, and fully transformed).

CDK6/cyclinD3 (h) = target: T1, CDK6/cyclinD3 (h) (Homo sapiens, UniProt Q00534); assay: Cyclin/CDK kinase assay (Upstate), CDK6/cyclinD3; format: biochemical; details: 100 μM, re-tested at 20 and 40 μM (SNX9, SNX2) or 10 and 20 μM (SNX9-1, SNX14)
T1 construct: purchased Upstate Biotechnology, Inc
Method: To test the above hypothesis, we determined whether several CDKI pathway inhibitors, including two SNX9 class compounds (SNX9 and SNX9-1), two compounds of a different structural class (SNX14 and SNX2) and another unrelated inhibitor (SNX35), inhibit the kinase activity of different complexes formed in vitro by purified cyclin/CDK complexes. This analysis was carried out as a service by Upstate Biotechnology, Inc.
In a final reaction volume of 25 μl, CDK6/cyclinD3 (h) (5-10 mU) is incubated with 8 mM MOPS pH 7.0, 0.2 mm EDTA, 0.1 mg/ml H1, 10 mM MgAcetate and [γ-33P-ATP] (specific activity approx. 500 cpm/pmol, 200 μM concentration). The reaction is initiated by the addition of the MgATP mix. After incubation for 40 minutes at room temperature, the reaction is stopped by the addition of 5 μl of a 3% phosphoric acid solution. 10 μl of the reaction is then spotted onto a P30 filtermat and washed three times for 5 minutes in 75 mM phosphoric acid and once in methanol prior to drying and scintillation counting.
At the first step, all the compounds were tested at 100 μM concentration. […] For SNX14 and SNX2, the relative efficacy of inhibition was CDK1>CDK2˜CDK3>CDK6. For SNX9 and SNX9-1, the order was CDK3>CDK1>CDK2>CDK6 (FIG. 12).

[5] = test system: p21-induced transcription from the NK4 promoter; assay: NK4 promoter-firefly luciferase reporter in HT1080 p21-9 cells; format: cell-based, human; details: 20 μM SNX-9
Method: In this experiment, HT1080 p21-9 cells that express firefly luciferase from a CDKI-responsive promoter of cellular NK4 gene were cultured with IPTG for two days, which is sufficient for near-maximal induction of NK4 (Poole et al., supra).

[6] = test system: p21-responsive genes (IPTG-induced p21); assay: Affymetrix U133 2.0 Plus microarray analysis of p21-responsive genes in HT1080 p21-9; format: cell-based, human; details: for fold induction at 20 µM: Homo sapiens, HT-1080, 72 h
Method: HT1080 p21-9 cell line, which carries IPTG-inducible CDKI p21, was either untreated, or treated for 72 hrs with 100 μM IPTG (which induces p21), or with CDKI pathway inhibitors SNX9-1 (20 μM, SNX9 family) or SNX14 (80 μM, unrelated to SNX9) alone or in combination with IPTG. RNA was extracted after each treatment and used for hybridization with Affymetrix U133 2.0 Plus microarrays, containing 56,000 probe sets corresponding to essentially all the human genes. The microarray data were analyzed using Gene Spring software (Agilent). […] The first group (p21-induced genes, top panels) represents 1124 probe sets corresponding to genes that were induced at least 2-fold upon treatment with p21-inducing IPTG. The second group (p21-inhibited genes, bottom panels) represents 435 probe sets corresponding to genes that were inhibited at least 4-fold upon IPTG treatment. […] The left panels show the response of the two groups of genes to IPTG (p21 induction) in the absence of SNX9-class compounds, with the first group induced and the second group inhibited by IPTG. The middle panels show the response of the same genes to IPTG in the presence of SNX9-1 or SNX14 (added with or without IPTG). Both the induction and the inhibition of gene expression by IPTG appear much reduced in the presence of SNX9-1 or SNX14, as expected from their activity as CDKI pathway inhibitors.

[7] = SNX9-1 20 μM, SNX14 80 μM, 72 hrs

T1 sequence (Q00534 whole entry): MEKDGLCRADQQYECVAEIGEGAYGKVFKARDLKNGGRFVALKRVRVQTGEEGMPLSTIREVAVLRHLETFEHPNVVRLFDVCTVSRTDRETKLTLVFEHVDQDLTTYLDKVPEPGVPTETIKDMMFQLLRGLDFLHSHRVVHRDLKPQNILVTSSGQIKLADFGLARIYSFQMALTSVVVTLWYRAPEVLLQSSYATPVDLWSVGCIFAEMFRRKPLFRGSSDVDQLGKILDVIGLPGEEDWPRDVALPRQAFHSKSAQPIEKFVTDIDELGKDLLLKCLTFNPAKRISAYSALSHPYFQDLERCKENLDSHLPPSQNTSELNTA
T1 sequence (P30281 whole entry partner): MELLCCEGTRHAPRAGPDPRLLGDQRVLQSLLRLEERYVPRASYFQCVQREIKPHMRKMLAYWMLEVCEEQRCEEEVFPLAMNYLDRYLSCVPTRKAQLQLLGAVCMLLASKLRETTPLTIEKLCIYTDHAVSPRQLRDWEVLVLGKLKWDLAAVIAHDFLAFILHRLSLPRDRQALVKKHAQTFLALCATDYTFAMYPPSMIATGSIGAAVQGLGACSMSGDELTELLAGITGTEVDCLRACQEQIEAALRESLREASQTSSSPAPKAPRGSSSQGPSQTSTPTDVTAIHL

| SMILES | induction of CDKI-responsive endogenous genes by p16 (ratio of RNA levels with and without IPTG) [1] | growth inhibition of the HT1080-derived reporter cell line [2] | tumor selectivity of growth inhibition, normal vs transformed mammary cells [3] | selectivity of growth inhibition for transformed cell lines relative to immortal but untransformed fibroblasts [4] | kinase activity of CDK6 (CDK6/cyclinD3 (h)) | induction of NK4-luciferase by p21, compound added after two days of IPTG treatment (reversal) [5] | induction of NK4-luciferase by p21, compound added simultaneously with IPTG [5] | fold induction at 20 µM ([6]; read-out: Fold induction by IPTG, CD44, probe 212063_at, SNX14 80 μM, SNX9-1 20 μM, control 1.21) | fold induction at 20 µM ([6]; read-out: Fold induction by IPTG, CLTB, probe 211043_s_at, SNX14 80 μM, SNX9-1 20 μM, control 1.32) | fold induction at 20 µM ([6]; read-out: Fold induction by IPTG, FLJ13111, probe 218148_at, SNX14 80 μM, SNX9-1 20 μM, control 1.27) | fold induction at 20 µM ([6]; read-out: Fold induction by IPTG, KRT8, probe 209008_x_at, SNX14 80 μM, SNX9-1 20 μM, control 1.97) | fold induction at 20 µM ([6]; read-out: Fold induction by IPTG, LGALS3, probe 208949_s_at, SNX14 80 μM, SNX9-1 20 μM, control 3.74) | fold induction at 20 µM ([6]; read-out: Fold induction by IPTG, NK4, probe 203828_s_at, SNX14 80 μM, SNX9-1 20 μM, control 7.22) | fold induction at 20 µM ([6]; read-out: Fold induction by IPTG, SLC22A18, probe 204981_at, SNX14 80 μM, SNX9-1 20 μM, control 2.46) | fold induction at 20 µM ([6]; read-out: Fold induction by IPTG, SPTBN1, probe 212071_s_at, SNX14 80 μM, SNX9-1 20 μM, control 1.24) | fold induction at 20 µM ([6]; read-out: Fold induction by IPTG, SPTBN1, probe 226765_at, SNX14 80 μM, SNX9-1 20 μM, control 1.21) | induction and inhibition of gene expression by IPTG in the presence of compound (1124 p21-induced, 435 p21-inhibited probe sets) [6, 7] | induction by p21 of genes that are markers of cancer intractability [6, 7] | response of p21-induced and p21-inhibited genes to compound in the absence of IPTG ([6]; SNX9-1 20 μM, SNX14 80 μM, 72 hrs, weaker than IPTG) |
| --- | --- | --- | --- | --- | --- | --- | --- | --- | --- | --- | --- | --- | --- | --- | --- | --- | --- | --- | --- |
| Cc1[nH]c2c(Cl)cccc2c1CCN [SNX9] | partially inhibit the induction of all the tested genes | associated with the induction of both cell death (as detected microscopically by cell detachment) and cell cycle arrest | clear tumor selectivity | pronounced selectivity for partially transformed or fully transformed cell lines | inhibited the kinase activities | reverses CDKI-induced transcription | decreased the induction of NK4-luciferase by p21 | – | – | – | – | – | – | – | – | – | – | – | – |
| NCCc1c[nH]c2c(Cl)cc(Cl)cc12 [SNX9-1] | – | associated with the induction of both cell death (as detected microscopically by cell detachment) and cell cycle arrest | – | pronounced selectivity for partially transformed or fully transformed cell lines | inhibited the kinase activities | – | – | 1.03 | 0.95 | 0.98 | 0.81 | 1.33 | 1.6 | 1.34 | 1.24 | 1.09 | much reduced | inhibited their induction | most of p21-induced genes are induced by SNX9-1 and SNX14 and most of p21-inhibited genes are inhibited |
